# Where two headings read alike, the source gives them in different places.
# Columns and labels:
# [1] = Spleen index of A549 lung cancer tumor-bearing mice; conditions: n = 6
# [2] = tested on: transplanted tumor of human glioblastoma cell A172; conditions: for Tumor Volume (mm3) (d 1): d1
# Experimental: Then cell concentration was adjusted to 1×10^7/ml with matrigel, then each nude mouse was inoculated subcutaneously with 0.2 ml of cells at its right armpit and recorded as the first day of inoculation. When the tumor grows to be greater than or equal to 100 mm^3, the mice were randomly divided into 11 groups with 6 mice in each group: a model group, a temozolomide group, […], […], […] Each group was continuously administered intragastrically for 30 days with a dose of 20 ml/kg. The mice were sacrificed the next day after drug withdrawal and the indicators were tested. The long diameter and short diameter of the tumor, and the body weight of each mouse were recorded every 3 days from drug administration to nude mouse sacrifice.
# (§1) The body weight of the nude mice and the long diameter (a) and short diameter (b) of the transplanted tumor were measured every 3 days, and the tumor volume (v), relative tumor volume (RTV) and relative tumor proliferation rate (T/C) are calculated respectively according to the following formulas, wherein V=a×b^2/2; RTV=V/V0 (V0 is the tumor volume before administration, V is the tumor volume before sacrifice), and T/C (%)=treatment group RTV/model control group RTV×100%.
# (§2) Each mouse was weighed and sacrificed. After the tumor was completely stripped off from the body of the mouse, the non-tumor tissues such as blood stains and fat were removed to weigh the tumor and calculate the tumor growth inhibition rate. The average tumor weight of each group of mice is used as an indicator of efficacy. Tumor growth inhibition rate (%)=(1−the average tumor weight of the treatment group/the average tumor weight of the model group)×100%.
# [3] = tested on: transplanted tumor of human breast cancer cell MDA-MB-231; assay: MDA-MB-231 transplanted tumor in nude mice
# Experimental: (§3) Then cell concentration was adjusted to 1×10^7/ml with matrigel, then each nude mouse was inoculated subcutaneously with 0.2 ml of cells at its right armpit and recorded as the first day of inoculation. When the tumor grows to be greater than or equal to 100 mm^3, the mice were randomly divided into 11 groups with 6 mice in each group: a model group, a cyclophosphamide group, isovaleryl spiramycin I groups with doses of 25, 50 and 100 mg/kg, isovaleryl spiramycin II groups with doses of 25, 50 and 100 mg/kg, and isovaleryl spiramycin III groups with doses of 25, 50 and 100 mg/kg. Each group was continuously administered intragastrically for 30 days with a dose of 20 ml/kg. The mice were sacrificed the next day after drug withdrawal and the indicators were tested. The long diameter and short diameter of the tumor, and the body weight of each mouse were recorded every 3 days from drug administration to nude mouse sacrifice.
# as §1, §2
# [4] = tested on: transplanted tumor of human hepatoma cell HepG-2; assay: HepG-2 transplanted tumor in nude mice; conditions: for Tumor Volume (mm3) (d 1): d1
# Experimental: as §3, §1, §2
# [5] = A172, high dose (100 mg/kg in method) i.g. 30 days
# [6] = A172, low dose (25 mg/kg in method) i.g. 30 days
# [7] = A172, medium dose (50 mg/kg in method) i.g. 30 days
# [8] = MDA-MB-231, 25 mg/kg (low dose) i.g. 30 days
# [9] = MDA-MB-231, 50 mg/kg (medium dose) i.g. 30 days
# [10] = MDA-MB-231, 100 mg/kg (high dose) i.g. 30 days
# [11] = HepG-2, high dose (100 mg/kg in method) i.g. 30 days
# [12] = HepG-2, low dose (25 mg/kg in method) i.g. 30 days
# [13] = HepG-2, medium dose (50 mg/kg in method) i.g. 30 days
smiles,measurement,setting,value
"COC1C(OC(C)=O)CC(=O)OC(C)CC=CC=CC(OC2CCC(N(C)C)C(C)O2)C(C)CC(CC=O)C1OC1OC(C)C(OC2CC(C)(O)C(OC(=O)CC(C)C)C(C)O2)C(N(C)C)C1O (stereo not drawn) [Isovaleryl spiramycin II, isovaleryl spiramycin II]",Spleen Index (%),[1]; dose 13 mg/kg,0.35 ± 0.06%
same,Spleen Index (%),[1]; dose 26 mg/kg,0.32 ± 0.09%
same,Spleen Index (%),[1]; dose 52 mg/kg,0.37 ± 0.06%
same,Relative Tumor Proliferation Rate (T/C),[2]; [5],42.18%
same,tumor growth inhibition rate,[2]; [5],40.01%
same,Relative Tumor Proliferation Rate (T/C),[2]; [6],74.24%
same,tumor growth inhibition rate,[2]; [6],10.85%
same,tumor volume and relative tumor volume compared with the model group,"[2]; A172, low, medium and high doses, P<0.05",significantly lower
same,Relative Tumor Proliferation Rate (T/C),[2]; [7],50.59%
same,tumor growth inhibition rate,[2]; [7],15.71%
same,Inhibition Rate (%),"[2]; A172 nude mice, 12.5 mg/kg",10.85%
same,Relative Tumor Proliferation Rate (T/C),"[2]; A172 nude mice, 12.5 mg/kg",74.24%
same,Relative Tumor Volume (RTV),"[2]; A172 nude mice, 12.5 mg/kg",14.73 ± 1.33
same,Tumor Weight,"[2]; A172 nude mice, 12.5 mg/kg",1.24 ± 0.12 g
same,Tumor Volume (mm3) (d 1),"[2]; A172 nude mice, 12.5 mg/kg",123.39 ± 11.22 mm3
same,Tumor Volume (mm3) (d30),"[2]; A172 nude mice, 12.5 mg/kg",1525.41 ± 255.74 mm3
same,Inhibition Rate (%),"[2]; A172 nude mice, 25 mg/kg",15.71%
same,Relative Tumor Proliferation Rate (T/C),"[2]; A172 nude mice, 25 mg/kg",50.59%
same,Relative Tumor Volume (RTV),"[2]; A172 nude mice, 25 mg/kg",14.31 ± 0.98
same,Tumor Weight,"[2]; A172 nude mice, 25 mg/kg",1.17 ± 0.10 g
same,Tumor Volume (mm3) (d 1),"[2]; A172 nude mice, 25 mg/kg",115.96 ± 11.42 mm3
same,Tumor Volume (mm3) (d30),"[2]; A172 nude mice, 25 mg/kg",984.26 ± 197.97 mm3
same,Inhibition Rate (%),"[2]; A172 nude mice, 50 mg/kg",40.01%
same,Relative Tumor Proliferation Rate (T/C),"[2]; A172 nude mice, 50 mg/kg",42.18%
same,Relative Tumor Volume (RTV),"[2]; A172 nude mice, 50 mg/kg",12.88 ± 1.54
same,Tumor Weight,"[2]; A172 nude mice, 50 mg/kg",0.84 ± 0.12 g
same,Tumor Volume (mm3) (d 1),"[2]; A172 nude mice, 50 mg/kg",120.28 ± 10.53 mm3
same,Tumor Volume (mm3) (d30),"[2]; A172 nude mice, 50 mg/kg",851.14 ± 215.31 mm3
same,mouse weight compared with the model group,"[2]; mouse, in vivo",no significant changes
same,Body Weight (g) (d1),"[2]; mouse, in vivo, 12.5 mg/kg",21.36 ± 0.67 g
same,Body Weight (g) (d30),"[2]; mouse, in vivo, 12.5 mg/kg",21.36 ± 0.87 g
same,Body Weight (g) (d1),"[2]; mouse, in vivo, 25 mg/kg",21.10 ± 0.62 g
same,Body Weight (g) (d30),"[2]; mouse, in vivo, 25 mg/kg",21.30 ± 0.89 g
same,Body Weight (g) (d1),"[2]; mouse, in vivo, 50 mg/kg",21.08 ± 0.74 g
same,Body Weight (g) (d30),"[2]; mouse, in vivo, 50 mg/kg",20.97 ± 0.68 g
same,Inhibition Rate (tumor growth inhibition rate),[3]; [8],18.17%
same,Relative Tumor Proliferation Rate (T/C),[3]; [8],80.22%
same,Relative Tumor Volume (RTV),[3]; [8],12.53 ± 1.78
same,Tumor Volume (d 1),[3]; [8],119.72 ± 6.52 mm3
same,Tumor Volume (d 30),[3]; [8],1493.96 ± 171.49 mm3
same,Tumor Weight,[3]; [8],1.90 ± 0.31 g
same,Inhibition Rate (tumor growth inhibition rate),[3]; [9],29.66%
same,Relative Tumor Proliferation Rate (T/C),[3]; [9],58.78%
same,Relative Tumor Volume (RTV),[3]; [9],9.18 ± 2.38
same,Tumor Volume (d 1),[3]; [9],119.07 ± 3.19 mm3
same,Tumor Volume (d 30),[3]; [9],1094.89 ± 291.37 mm3
same,Tumor Weight,[3]; [9],1.63 ± 0.32 g
same,Inhibition Rate (tumor growth inhibition rate),[3]; [10],58.91%
same,Relative Tumor Proliferation Rate (T/C),[3]; [10],30.89%
same,Relative Tumor Volume (RTV),[3]; [10],6.08 ± 1.74
same,Tumor Volume (d 1),[3]; [10],115.89 ± 9.01 mm3
same,Tumor Volume (d 30),[3]; [10],700.44 ± 192.38 mm3
same,Tumor Weight,[3]; [10],0.95 ± 0.42 g
same,tumor volume and relative tumor volume compared with the model group,"[3]; MDA-MB-231, low, medium and high doses, P<0.05",significantly lower
same,mouse weight compared with the model group,"[3]; mouse, in vivo",no significant changes
same,Relative Tumor Proliferation Rate (T/C),[4]; [11],39.31%
same,tumor growth inhibition rate,[4]; [11],61.56%
same,Relative Tumor Proliferation Rate (T/C),[4]; [12],81.03%
same,tumor growth inhibition rate,[4]; [12],21.07%
same,tumor volume and relative tumor volume compared with the model group,"[4]; HepG-2, low, medium and high doses, P<0.05",significantly lower
same,Relative Tumor Proliferation Rate (T/C),[4]; [13],57.02%
same,tumor growth inhibition rate,[4]; [13],31.43%
same,Inhibition Rate (%),"[4]; HepG-2 nude mice, 25 mg/kg",21.07%
same,Relative Tumor Proliferation Rate (T/C),"[4]; HepG-2 nude mice, 25 mg/kg",81.03%
same,Relative Tumor Volume (RTV),"[4]; HepG-2 nude mice, 25 mg/kg",13.57 ± 1.64
same,Tumor Weight,"[4]; HepG-2 nude mice, 25 mg/kg",1.92 ± 0.32 g
same,Tumor Volume (mm3) (d 1),"[4]; HepG-2 nude mice, 25 mg/kg",122.82 ± 4.10 mm3
same,Tumor Volume (mm3) (d30),"[4]; HepG-2 nude mice, 25 mg/kg",1666.11 ± 202.07 mm3
same,Inhibition Rate (%),"[4]; HepG-2 nude mice, 50 mg/kg",31.43%
same,Relative Tumor Proliferation Rate (T/C),"[4]; HepG-2 nude mice, 50 mg/kg",57.02%
same,Relative Tumor Volume (RTV),"[4]; HepG-2 nude mice, 50 mg/kg",9.55 ± 2.84
same,Tumor Weight,"[4]; HepG-2 nude mice, 50 mg/kg",1.67 ± 0.32 g
same,Tumor Volume (mm3) (d 1),"[4]; HepG-2 nude mice, 50 mg/kg",118.60 ± 4.30 mm3
same,Tumor Volume (mm3) (d30),"[4]; HepG-2 nude mice, 50 mg/kg",1127.90 ± 319.12 mm3
same,Inhibition Rate (%),"[4]; HepG-2 nude mice, 100 mg/kg",61.56%
same,Relative Tumor Proliferation Rate (T/C),"[4]; HepG-2 nude mice, 100 mg/kg",39.31%
same,Relative Tumor Volume (RTV),"[4]; HepG-2 nude mice, 100 mg/kg",6.58 ± 2.48
same,Tumor Weight,"[4]; HepG-2 nude mice, 100 mg/kg",0.93 ± 0.41 g
same,Tumor Volume (mm3) (d 1),"[4]; HepG-2 nude mice, 100 mg/kg",118.70 ± 7.20 mm3
same,Tumor Volume (mm3) (d30),"[4]; HepG-2 nude mice, 100 mg/kg",783.73 ± 312.41 mm3
same,mouse weight compared with the model group,"[4]; mouse, in vivo",no significant changes
same,Body Weight (g) (d1),"[4]; mouse, in vivo, 25 mg/kg",21.98 ± 1.74 g
same,Body Weight (g) (d30),"[4]; mouse, in vivo, 25 mg/kg",23.35 ± 1.83 g
same,Body Weight (g) (d1),"[4]; mouse, in vivo, 50 mg/kg",20.75 ± 1.86 g
same,Body Weight (g) (d30),"[4]; mouse, in vivo, 50 mg/kg",22.22 ± 1.62 g
same,Body Weight (g) (d1),"[4]; mouse, in vivo, 100 mg/kg",21.48 ± 1.98 g
same,Body Weight (g) (d30),"[4]; mouse, in vivo, 100 mg/kg",22.45 ± 1.28 g

# From patent US20200163984A1, “USE OF ISOVALERYL SPIRAMYCIN I, II AND/OR III IN MANUFACTURING MEDICAMENT FOR TREATING AND/OR PREVENTING TUMOR, AND MEDICAMENT” (SHENYANG FUYANG PHARMACEUTICAL TECHNOLOGY CO., LTD., priority 2017, published 2020)
